Reference: US20260242340A1, “COMPOUNDS AND METHODS FOR TREATING PROTEIN AGGREGATION DISEASES” (ACELOT, INC., priority 2023, published 2026)

What was measured:
Type in all cases: biochemical
Aβ 1-42 = target: T1, Aβ 1-42 (Homo sapiens, UniProt P05067); assay: Aβ42 thioflavin T assay; settings: 50 μM compound, 5 μM Aβ 1-42, ThT RFU at 15 hours; 100% = Aβ + DMSO; read-out: Aβ42 % aggregation at 50 μM
T1 construct: The monomeric form of Aβ 1-42 (rPeptide, A1170-025) film; purchased rPeptide A1170-025
T1 sequence (P05067 672-713 limits assumed): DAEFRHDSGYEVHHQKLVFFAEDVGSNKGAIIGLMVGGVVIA
Experimental: The effect of compounds on fibril formation by Aβ 1-42 was screened using a thioflavin T (ThT) fluorescence assay in a 96-well plate format. The monomeric form of Aβ 1-42 (rPeptide, A1170-025) film was diluted with 10 mM NaOH to form a 1 mg/ml stock solution. This stock solution was then further diluted with cell culture grade water (Cytiva, SH30529.01) and 10×PBS (VWR, 97063-660) to a working concentration of 100 μM in 1×PBS on ice. Compounds were initially dissolved in 100% DMSO (MilliporeSigma, D2650) at room temperature to make a 10 mM stock and stored at −20° C. prior to the experiment. On the day of the experiment, the stock solution was diluted with 1×PBS to a concentration of 500 μM, containing 5% DMSO. The reaction mixture, containing 10 μM ThT […], 5 μM Aβ 1-42, and 1×PBS was prepared in 15 ml Falcon centrifuge tubes (Corning, 352070) and kept on ice during preparation. The reaction mixture was then dispensed into multiple wells of a 96-well half-area, low-binding polyethylene non-treated plate (Corning, 3880) with a clear bottom, at 90 μL per well. To each well, 10 μL of 500 μM compound stock was added, with three replicates per compound. To account for the presence of DMSO, 5% DMSO in 1×PBS was used as the vehicle control. The positive control consisted of 10 μM ThT, 5 μM Aβ 1-42, and 0.5% DMSO in 1×PBS, while the negative control consisted of 10 μM ThT and 0.5% DMSO in 1×PBS. The plates were sealed with polyester sealing tape (VWR, 89134-430) to prevent evaporation and then placed in a plate reader (Molecular Devices SpectraMax ID5) at 37° C. without agitation. ThT fluorescence was measured through the bottom of the plate using 440- and 480-nm excitation and emission filters for 15 hours at 0.5-hour intervals. Each well was scanned at 5 points with a 1.25 mm distance between points. The relative fluorescence unit (RFU) at 15 hours was used to rank the percent of aggregation for all tested compounds and controls.

[1] = target: peptide fragment of TAR DNA-binding protein 43 (TDP-43) (Homo sapiens, UniProt Q13148); assay: Ion-mobility mass spectrometry (IM-MS) of TDP-43 peptide oligomerization; settings: approximately 4 hours after addition of compound to aggregated peptide sample; for 6mer/hexamer peak of TDP-43 peptide (IM-MS, FIG. 2): versus control
Description: One of the assays used to determine the effectiveness of the compounds is Ion Mobility Mass Spectroscopy, or IM-MS. In this assay, a protein solution was fed into the IM-MS tube. At the entrance to the tube, an electric field ionized the proteins, propelling them into the body of the tube, where a constant electric field propelled them forward. Upon reaching the end of the tube, the ionized proteins were counted by a particle detector, which can also measure the mass/charge ratio and flight time of each particle.
Methods: IM-MS was utilized to monitor the oligomerization of a peptide fragment of TAR DNA-binding protein 43 (TDP-43) in the presence of compounds 1 and 2 using methods as described in Laos et al ACS Chem. Neuro. 2019, 10 (9), 4112-4123; and Biochemistry 2019, 59 (4), 499-508. The accumulation of TDP-43 aggregates in the central nervous system is a common feature of many neurodegenerative diseases, such as amyotrophic lateral sclerosis, frontotemporal dementia, Alzheimer's disease, and limbic predominant age-related TDP-43 encephalopathy. The ability of IM-MS to separate TDP-43 aggregate species of a specific [m]z+ (m=mass, z=charge) that contains different [n]z+ (n=number of TDP-43 peptide molecules aggregated together) by measuring the arrival time distributions (ATDs) yields oligomeric distribution spectrographs.
In FIG. 2, the number denoted at the top of each peak is the peptide aggregate size (e.g., 6=6 peptides aggregated together). The spectrograph designated as Control is the peptide form of TDP-43 without any protein aggregation disrupting compound added. Measurements were taken approximately 4 hours after addition of compound to aggregated peptide sample. […] The 6mer is the toxic oligomer that propagates disease and neuronal degeneration. FIG. 2 also discloses that the addition of compound 1 or compound 2 decreased the number of higher-order TDP-43 oligomers and increased the number of TDP-43 monomers and dimers.
We conducted two types of experiments. The first was a co-incubation experiment, where we added the compounds to a fresh solution of monomeric protein, and allowed the protein to aggregate (or, ideally, not aggregate) in the presence of the compound. The second experiment was a recovery experiment, where we added our compounds to a solution of pre-aggregated protein. Co-incubation experiments allowed us to determine if the compounds can prevent initial aggregation, while recovery experiments allowed us to determine if the compounds can break up existing aggregates.

alpha-synuclein = target: T2, alpha-synuclein (Homo sapiens, UniProt P37840); assay: Alpha-synuclein thioflavin T assay; settings: 250 μM compound on pre-formed aggregates of 50 μM alpha-synuclein, 24 hours; 100% = alpha synuclein + DMSO
T2 construct: purchased Proteos RP-003
Experimental: Recombinant alpha-synuclein monomeric protein was procured from Proteos (catalog no. RP-003, 10 mg/ml or 700 μM concentration). Prior to aggregation, the protein was centrifuged at 10,000 rpm for 5 minutes to remove any pre-existing aggregates. The stock solution was then diluted to 50 μM concentration in filtered 1×PBS and allowed to aggregate with continuous shaking at 1000 rpm on a thermomixer for 96 hours at 37° C. After 96 hours, the ThT fluorescence was checked for the sample to confirm aggregate formation using ThT, a well-known amyloid marker dye. The ThT active aggregates were then used for high-throughput small molecule inhibitor screening. For screening small molecule disaggregators, 10 mM DMSO stock solutions of small molecules were diluted to 250 μM in the reaction mix containing 20 μM ThT and aggregates formed by 50 μM alpha-synuclein. As a positive/vehicle control, 100% DMSO stock was diluted to 2.5% to match the DMSO in the small molecule conditions. ThT fluorescence assay was performed for 24 hours with 3 replicates per sample in a 384 well plate (Corning low volume black/clear flat bottom) on a microplate reader (Molecular Devices SpectraMax iD5 or BioTek Agilent Synergy Neo2) using excitation wavelength of 440 nm and emission wavelength of 490 nm. The temperature was maintained at 37° C. and the plate was continuously shaken throughout the measurement. All data were plotted and analyzed in GraphPad Prism.

activity at 50 µM (Aβ 1-42) [%] | number of TDP-43 monomers and dimers (IM-MS, FIG. 2) [1] | number of higher-order TDP-43 oligomers (IM-MS, FIG. 2) [1] | 6mer/hexamer peak of TDP-43 peptide (IM-MS, FIG. 2) [1] | % alpha synuclein aggregation as measured on ThT (alpha-synuclein) [%] | Structure (SMILES)
60.9 | increased | decreased | depleted | 77.8 | CC(=O)Nc1ccc2c(c1)CCN(CCc1cccc(Cl)c1)C2 [Compound 1]
73.5 | increased | decreased | depleted | 95.6 | CC(=O)Nc1ccc2c(c1)CCN(CCc1ccc(F)c(Cl)c1)C2 [Compound 2]
